Measured values published in US20130224730A1, “PEPTIDE LIGANDS” (ARIZONA BOARD OF REGENTS ACTING FOR AND ON BEHALF OF …, priority 2009, published 2013).

Tests used:
G1.1 nVLP = assay: Peptide affinity column binding and elution of G1.1 nVLP produced in insect cells; set-up: species or system norovirus; conditions: eluted under same conditions as G2.4 nVLP
Excerpt: Noroviruses bind to histo-blood group antigens (HBGAs), which are carbohydrates that contain structurally related saccharide moieties, wherein type 1 and type 2 carbohydrate core structures constitute antigenically distinct variants. Several, but not all, noroviruses specifically bind to HBGAs, which are believed to function as receptors for docking and entry into the cell during infection. As previously mentioned, peptide nVLP1 was selected to specifically bind to G2.4 Minerva nVLPs. […] We therefore have identified at ligand that has cross reactivity to G1 and G2 capsid proteins in VLPs, with homology between genogroups I and II around 50%.

[1] = system: G2.4 Minerva nVLP (norovirus-like particles, VP1 capsid protein); assay: Peptide affinity column capture and elution of nVLP from tobacco cell lysate; conditions: nVLP1 immobilized on a bead
Excerpt: Coupling to Support: All 6 candidate peptides were synthesized by solid-phase peptide synthesis using standard FMOC chemistry and subsequently cleaved off the resin. The candidate peptides were attached to an iodoacetyl functionalized affinity matrix at a specifically determined level. The benefits of coupling our peptides to the affinity matrix as opposed to direct synthesis onto the bead are that it allows for greater control of the levels of peptide that are immobilized. The suitability of a ligand for affinity chromatography depends on its ability to bind the target molecule specifically and reversibly with an adequate affinity. […]
To test the recovery yield of the column, cell lysate containing ˜500 μg of VP1 (as measured by SDS-PAGE) was loaded on the column and ˜470 μg of VP1 was recovered for a 94% yield. The dynamic binding capacity of the chromatography media was determined and is defined as the amount of target protein that the media binds under actual flow conditions before significant breakthrough of unbound protein occurs. […]
Briefly, a large volume of VP1 containing lysate was prepared and its absorbance at 280 nm measured. This solution was continually loaded onto the column and the flow through measured for absorbance. The point at which breakthrough occurred, defined as 10% absorbance of the lysate, was used to calculate the binding capacity. […]

LLYNKTFPHGRWSPSYPGSC (Peptide Ligand) [nVLP1, 20 mer peptide ligand for norovirus-like particles, optimal ligand]
binding to G1.1 nVLP (cross reactivity G1/G2) (G1.1 nVLP): shown to bind G1.1 nVLP
capture of nVLP from cell lysate [1]: able to capture nVLP from cell lysate
